{"source": "patent US8298513B2", "about": "“Hexatriene-β-carbonyl compound” (Osaka University, priority 2007, dated 2012)", "key": {"[1]": {"target": "T1, human serum albumin (HSA) (Homo sapiens, UniProt P02768)", "T1 sequence (P02768 25-609)": "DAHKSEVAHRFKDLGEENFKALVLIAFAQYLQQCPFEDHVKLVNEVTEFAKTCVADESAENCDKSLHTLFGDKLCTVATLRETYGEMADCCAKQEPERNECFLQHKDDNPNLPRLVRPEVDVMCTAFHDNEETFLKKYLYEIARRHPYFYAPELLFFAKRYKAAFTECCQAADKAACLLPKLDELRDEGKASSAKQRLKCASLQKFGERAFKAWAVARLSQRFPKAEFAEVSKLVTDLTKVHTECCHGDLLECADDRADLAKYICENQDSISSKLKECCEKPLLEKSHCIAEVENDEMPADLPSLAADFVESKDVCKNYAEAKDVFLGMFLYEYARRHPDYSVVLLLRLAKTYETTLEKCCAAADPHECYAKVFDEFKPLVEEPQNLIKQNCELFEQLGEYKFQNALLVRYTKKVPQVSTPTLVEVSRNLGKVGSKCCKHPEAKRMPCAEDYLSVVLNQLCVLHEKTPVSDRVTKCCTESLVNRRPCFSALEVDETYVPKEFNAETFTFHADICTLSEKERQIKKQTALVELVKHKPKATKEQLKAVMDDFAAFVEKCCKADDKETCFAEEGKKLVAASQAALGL", "assay": "Labeling of human serum albumin (HSA) with Compound 8, 57Co incorporation, gamma ray counting", "details": "room temperature 30 minutes, PBS, gamma ray count", "procedure": "HSA (0.5 mg, 7.5 nmol was dissolved in a PBS buffer solution (1.5 ml) to prepare a 5 μM HSA solution. 320 μl (1.6 nmol) of the HSA solution was introduced into each of 3 Eppendorf tubes. 1.2 μl (40 nmol), 2.3 μl (80 nmol) and 11.8 μl (0.4 μmol) of a DMF solution (3.38×10^−2M) of Compound 8 described above were added to the respective Eppendorf tubes. 160 μl (0.8 nmol) of the 5 μM HSA solution was added to each of the Eppendorf tubes, and 11.8 μl (0.4 μmol) of a DMF solution (3.38×10^−2M) of Compound 8 described above was added to each tube. The reaction mixtures all were left to stand at room temperature for 30 minutes. Purification was performed using a filter with a 30000 molecular weight cut off manufactured by Millipore, followed by concentration. The protein concentration in the contents of each Eppendorf tube was measured, 5 μl of the contents of each Eppendorf tube were added to other Eppendorf tubes, and a 0.25 M ammonium acetate buffer solution (15 μl) and a 400 μM ^57Co solution (10 μl) were added thereto. The reaction mixtures were incubated at 41° C. for 3 hours. 10 μl of a 0.01 M 1,4,7,10-tetraazacyclododecane-1,4,7,10-tetraacetic acid (DOTA) solution was added to each reaction mixture, and incubation was performed at 41° C. for 10 minutes. […] The silica gel plates were cut in half lengthwise, and gamma rays were counted with a gamma ray counter using the plates."}, "anti-GFP antibody": {"test_system": "anti-GFP antibody", "assay": "Labeling of anti-GFP antibody with Compound 8, GFP fluorescence measurement after immune precipitation", "details": "10 to 1250 equivalents, room temperature 10 minutes; GFP fluorescence excitation 395 nm, emission 509 nm", "procedure": "To a PBS buffer solution (81 μl) was added 27 μl of an anti-GFP antibody (20 μg/μl, PBS buffer solution, manufactured by Nacalai Tesque, Inc.) for dilution. The diluted anti-GFP solution was added to 4 Eppendorf tubes each in an amount of 3.3 μM, 8 μl, 2.6×10^−11 mol, and Compound 8 was added in a proportion of 10 equivalents (24 μM, 5 μl, 2.6×10^−10 mol), 50 equivalents (0.12 mM, 5 μl, 1.3×10^−9 mol), 250 equivalents (0.61 mM, 5 μl, 6.6×10^−9 mol) and 1250 equivalents (12 mM, 2.7 μl, 3.3×10^−8 mol) relative to the anti-GFP antibody. The mires were left to stand for 10 minutes at room temperature, and then a GFP antigen (cultured from Escherichia coli, PBS buffer solution, 1000 μl) was added and reacted at 4° C. for 1 hour. Thereafter, Protein G (500 μg, manufactured by GE Healthcare Ltd.) was added to the mixtures and left to stand at the same temperature for 30 minutes. Then, labeled anti-GFP (Compound 24) was purified by subjecting the mixtures to immune precipitation. GFP fluorescence measurement (excitation: 395 nm, emission: 509 nm) was performed on each anti-GFP."}, "[2]": {"target": "T1, human serum albumin (HSA)", "assay": "Labeling of human serum albumin (HSA), fluorescence spectrum of the reaction product", "details": "phosphate buffer pH 7.4, 40° C. for 1 hour; 420 nm excitation light", "procedure": "(§1) HSA was dissolved in a phosphate buffer (0.1 M, pH 7.4) to adjust the concentration to 5.0×10^−5 M. 20 μl of a phosphate buffer (0.1 M, pH 7.4) was added to 200 μl of the solution for dilution, and the mixture was pre-incubated at 40° C. for 5 minutes. A 1,4-dioxane (20 μl) solution of Compound 50 (50 μg, 0.1 μmol) was added to the mixture, and the mixture was incubated at 40° C. for 1 hour. 300 μl of 1% acetic acid was added to the reaction solution to quench the reaction, and the reaction solution was purified by gel filtration and lyophilized.\nas §1, with “buffer solution” for “buffer”, “Compound 56” for “Compound 50”"}, "[3]": {"assay": "PET imaging of the biodistribution of 68Ga-DOTA-labeled somatostatin in a rat", "type": "in vivo, rat (Wistar rat)", "details": "tail vein, given as 68Ga-DOTA-labeled somatostatin (Compound 41), accumulated 3 to 7 minutes after administration", "procedure": "A DMF solution (40 μl) of Compound 8 produced in Example 3 described above was added to a solution of somatostatin (0.17 mg, 0.10 μmol) in Otsuka distilled water (154 μl) and put into a vortex generator. The reaction mixture was left to stand at room temperature for 30 minutes and then lyophilized, thereby giving the titled Compound 9.\nA 1 N hydrochloric acid solution (400 μl) of ^68GaCl3 eluted from a ^68Ga/^68Ge generator was purified, neutralized with aqueous 4 N NaOH and then added to Compound 9 described above. After incubation at 40° C. for 10 minutes, it was injected into a rat (Wistar rat 8W, male, 235 g) (1.68 mCi). Propofol was administered continuously at a rate of […] into the tail vein of the rat for tranquilization, and a PET tracer was administered into the tail vein of the rat."}}, "data": [{"smiles": "CCOC(=O)C(/C=C/c1ccc(NC(=O)CNC(=O)CN2CCN(CC(=O)O)CCN(CC(=O)O)CCN(CC(=O)O)CC2)cc1)=C/C=O", "note": "[Compound 8, 10-(2-(2-(4-((1E,3E)-3-ethoxycarbonyl-5-oxopenta-1,3-dienyl)phenylamino)-2-oxoethylamino)-2-oxoethyl)-1,4,7,10-tetraazacyclododecane-1,4,7-triacetic acid]", "values": [{"measurement": "labeling reaction with HSA (incorporation into HSA, FIG. 1)", "setting": "[1]", "result": "promptly reacts with somatostatin"}, {"measurement": "labeling reaction with anti-GFP antibody (incorporation into antibody, FIG. 2)", "setting": "anti-GFP antibody", "result": "promptly reacts with the anti-GFP antibody"}]}, {"smiles": "CCN(CC)c1ccc2cc(C(=O)NCCOCCOC(=O)C(/C=C/c3ccccc3)=C/C=O)c(=O)oc2c1", "note": "[Compound 50, 2-(2-(7-diethylaminocoumarin)-3-carbonylaminoethoxy)ethyl (E,E)-4-oxo-2-styrylbut-2-enoate]", "values": [{"measurement": "fluorescence of the reaction product with HSA", "setting": "[2]", "result": "intense fluorescence was observed near 460 nm"}]}, {"smiles": "CCN(CC)c1ccc2cc(C(=O)NCCOCCOC(=O)C(/C=C/c3ccc(NC(=O)CCCCCNc4ccc([N+](=O)[O-])c5nonc45)cc3)=C/C=O)c(=O)oc2c1", "note": "[Compound 56, 2-(2-(7-diethylaminocoumarin)-3-carbonylaminoethoxy)ethyl (E,E)-4-oxo-2-((6-(N-(7-nitrobenz-2-oxa-1,3-diazol-4-yl)amino)hexanamide)styryl)but-2-enoate]", "values": [{"measurement": "fluorescence of the reaction product with HSA", "setting": "[2]", "result": "intense fluorescence was observed near 460 nm"}]}, {"smiles": "C[C@H](N)C(=O)NCC(=O)N[C@H]1CSSC[C@@H](C(=O)O)NC(=O)[C@H](CO)NC(=O)[C@H]([C@@H](C)O)NC(=O)[C@H](Cc2ccccc2)NC(=O)[C@H]([C@@H](C)O)NC(=O)[C@H](CCCCN)NC(=O)[C@H](Cc2c[nH]c3ccccc23)NC(=O)[C@H](Cc2ccccc2)NC(=O)[C@H](Cc2ccccc2)NC(=O)[C@H](CC(N)=O)NC(=O)[C@H](CCCCN)NC1=O", "note": "[somatostatin]", "values": [{"measurement": "distribution in the living body (PET image, FIG. 3)", "setting": "[3]", "result": "distributed across the heart of the rat"}]}]}
